Patent US7943775B2, “Small molecules for imaging protein-protein interactions” (The United States of America as represented by the …, priority 2006, dated 2011)

Tests used:
Biotin-labeled amyloid-β [1] = biological target: T1, Biotin-labeled amyloid-β (Homo sapiens, UniProt P05067); test: Dose response assay, plate-coated test compounds at 6 concentrations vs biotin-labeled amyloid β; assay type: binding; conditions: biotin-labeled amyloid at 1 μM; compounds coated at 6 concentrations
Procedure: Step 1. Coating the plate. The four compounds 3a, 3b, 3c, and 3d were diluted to 6 different concentrations in the same coating buffer used in the ELISA. The resulting solutions were applied to individual wells of a 96-well polystyrene microtiter plate at 100 μL/well. The plate was then sealed and allowed to incubate at 4° C. for at least 8 hours.
Step 2. Washing the plate. The sample solutions were then removed and the plate was washed twice with 300 μL/well of the same washing solution used in the ELISA.
Step 3. Blocking. The blocking buffer used in the ELISA was added at a volume of 150 μL/well, and the plate was incubated at room temperature for 2 hours.
Step 4. Sampling. The blocking buffer was removed and biotin-labeled amyloid P was added to each well at a concentration of 1 μM in the same binding buffer used in the ELISA. The solution in each well was then mixed by being drawn into and ejected from a pipette 15 times. The plate was then gently agitated for further mixing. After mixing, the plate was covered and incubated at room temperature overnight.
Step 5. Washing. The solution in each well was discarded and the plate was washed three times with 170 μL/well of the washing solution described above.
Step 6. Binding with avidin-HRP and substrate. NeutrAvidinHRP solution was added to each well at 0.01 μg/well. The wells were then covered and incubated at room temperature for 30 minutes. The solution in each well was discarded and the plate was washed 3 times with the above-referenced washing solution at 170 μL/well of washing solution. The chemiluminescent substrate solution of the ELISA was then added at 100 μL/well, and luminescence was read using the Wallac Victor 1420 Multilabel Counter.
Step 7. Reading and calculations. Values for average luminescence vs. concentration were developed in the same manner as in the ELISA. From these values were determined EC50 values for each of the four test compounds as β-amyloid-binding portion candidates.

Biotin-labeled amyloid-β [2] = biological target: T1, Biotin-labeled amyloid-β; test: ELISA assay, binding of biotin-labeled amyloid-β to plate-coated test compounds; conditions: compound coated at 1 μM
Procedure: Step 1. Sample Solution Preparations. For each test compound, four samples and two standard solutions using Thioflavin-T as the standard were prepared in a coating buffer, each to a final concentration of 1 μM. The coating buffer was 50 mM Tris (Trizma Base from Sigma Aldrich, Inc., St. […] Step 2. Coating the Plate. The sample solutions were applied to individual wells of a 96-well polystyrene microtiter plate at 100 μL/well. The plates were sealed and allowed to incubate at 4° C. for at least 8 hours. Step 3. Washing the Plate. The sample solutions were removed and the plate was washed two times with 300 μL/well of washing solution, which consisted of a 1 to 25 dilution in water of DELFIA® Wash Concentrate (PerkinElmer Life Sciences, Inc., Boston, Mass., USA). Step 4. Blocking. Blocking was achieved by adding 150 μL/well of a blocking buffer which consisted of a 1 to 20 dilution in water of Milk Diluent/Blocking Solution Concentrate (from KPL, Inc., Gaithersburg, Md., USA). The plate was then incubated at room temperature for 2 hours. Step 5. Sampling. Biotin-labeled amyloid-β was dissolved in a binding buffer to form a 1 μM solution of the amyloid-β. The binding buffer was a mixture of a coating buffer with the blocking buffer of Step 4 in a 90:10 ratio by volume. […] The dilutions were performed in quadruplicate, thus resulting in four sets of wells for each test compound. Step 6. Mixing. The solution in each well was mixed by being drawn into and ejected from a pipette 15 times. The plate was then gently agitated for further mixing. The plate was then covered and incubated at room temperature overnight. Step 7. Washing. The solution in each well was discarded and the plate was washed three times with 170 μL/well of the washing solution described above. Step 8. Binding with avidin-HRP. NeutrAvidinHRP solution was added to each well at 0.01 μg/well. The wells were then covered and incubated at room temperature for 30 minutes. Step 9. Substrate addition. The solution in each well was discarded and the plate was washed 3 times with the above-referenced washing solution at 170 μL/well of washing solution. A chemiluminescent substrate solution which was a mixture of equal volumes of LumiGLO Substrate A and LumiGLO Substrate B from KPL, Inc., was then added at 100 μL/well. Step 10. Fluorescence measurement and calculations. Luminescence was read on a Wallac Victor 1420 Multilabel Reader (PerkinElmer Life Sciences, Inc., Boston, Mass., USA). […] Average luminescence concentrations in counts per second (CPS) for each of the four β-amyloid-binding portion candidates at each dilution of the biotin-labeled β-amyloid are shown in Table I below.

FKBP12 = biological target: T2, FKBP12 (Homo sapiens, UniProt P62942); test: ELISA screening of candidates for the chaperone binding portion (FKBP12); conditions: for Average Luminescence Concentration (CPS): compound coated at 1 μM; for binding affinity to chaperone FKBP12, in words: comparison of the four isomers
T2 construct: His (6xHis); made in house; host or cells: E. coli BL21-AI
T2 sequence (P62942 whole entry): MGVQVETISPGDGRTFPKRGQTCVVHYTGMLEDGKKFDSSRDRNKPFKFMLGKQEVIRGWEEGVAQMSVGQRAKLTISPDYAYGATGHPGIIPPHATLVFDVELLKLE
Procedure: The following four compounds, synthesized as described in, or in a manner analogous to the description in, Example 3, were tested for their suitability as candidates for the chaperone binding portion of the construct of this invention. The chaperone to which binding was evaluated was FKBP12 and, screening was performed by ELISA.
Step 1. Sample Solutions. Four samples of each of the test compounds were prepared by dissolving the compounds in the coating buffer described in Example 2 to a final concentration of 1 μM.
Step 2. Coating the Plate. The wells of a 96-well microtiter plate were coated with the sample solutions at 100 μL/well. The plates were then sealed and allowed to incubate at 4° C. for at least 8 hours.
Step 3. Washing the Plate. The coating solution was removed from the wells and the plate was washed two times with the washing solution of Example 2 at 300 μL/well.
Step 4. Blocking. The blocking buffer used in Example 2 was added at a volume of 150 μL/well, and the plate was incubated at room temperature for 2 hours.
Step 5. Sampling. Biotin-labeled FKBP12 was dissolved in a binding buffer to form a 1 μM solution. The binding buffer was a mixture of a coating buffer with the blocking buffer of Step 4 in a 90:10 ratio by volume. The coating buffer consisted of 50 mM Tris (Trizma Base from Sigma-Aldrich), 150 mM NaCl, 1 mM CaCl2, 1mM MgCl2, 1 mM MnCl2, pH=7.4 in redistilled water. Once blocking had been completed in Step 4, the blocking buffer was removed from each well, and the biotin-labeled […] solution was placed in one of the wells for each of the four test compounds, together with additional blocking buffer for a total volume of 125 μL in the well. Dilutions were then prepared to achieve final concentrations per well of […]. The dilutions were performed in quadruplicate, thus resulting in four sets of wells for each test compound. The procedures used for cloning, expression, and purification of FKBP12 are provided at the end of this example.
Step 6. Mixing. The solution in each well was mixed by being drawn into and ejected from a pipette 15 times. The plate was then gently agitated to achieve thorough mixing. After mixing, the plate was covered and incubated at room temperature overnight.
Step 7. Washing. The solution in each well was discarded and the plate was washed three times with 170 μL/well of the washing solution of Example 2.
Step 8. Binding with avidin-HRP. NeutrAvidinHRP solution was added to each well at 0.01 μg (100 μL)/well. The wells were then covered and incubated at room temperature for 30 minutes.
Step 9. Substrate addition. The solution in each well was discarded and the plate was washed 3 times with the above-referenced washing solution at 170 μL/well of washing solution. A chemiluminescent substrate solution was then added at 100 μL/well.
Step 10. Fluorescence measurement and calculations.

[3] = β-Amyloid Dilution 10 (μL/well)
[4] = β-Amyloid Dilution 20 (μL/well)
[5] = β-Amyloid Dilution 30 (μL/well)
[6] = β-Amyloid Dilution 40 (μL/well)
[7] = Concentration 1 (μM/well) biotin-labeled FKBP12
[8] = Concentration 5 (μM/well) biotin-labeled FKBP12
[9] = Concentration 10 (μM/well) biotin-labeled FKBP12
[10] = Concentration 20 (μM/well) biotin-labeled FKBP12
[11] = Concentration 30 (μM/well) biotin-labeled FKBP12
[12] = Concentration 40 (μM/well) biotin-labeled FKBP12

T1 sequence (P05067 672-711 limits assumed): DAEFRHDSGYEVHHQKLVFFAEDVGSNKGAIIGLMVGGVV

Compound	EC50 (Biotin-labeled amyloid-β [1])	Average Luminescence Concentration (CPS) (Biotin-labeled amyloid-β [2]; β-Amyloid Dilution 1 (μL/well))	Average Luminescence Concentration (CPS) (Biotin-labeled amyloid-β [2]; β-Amyloid Dilution 5 (μL/well))	Average Luminescence Concentration (CPS) (Biotin-labeled amyloid-β [2]; [3])	Average Luminescence Concentration (CPS) (Biotin-labeled amyloid-β [2]; [4])	Average Luminescence Concentration (CPS) (Biotin-labeled amyloid-β [2]; [5])	Average Luminescence Concentration (CPS) (Biotin-labeled amyloid-β [2]; [6])	Average Luminescence Concentration (CPS) (FKBP12; [7])	Average Luminescence Concentration (CPS) (FKBP12; [8])	Average Luminescence Concentration (CPS) (FKBP12; [9])	Average Luminescence Concentration (CPS) (FKBP12; [10])	Average Luminescence Concentration (CPS) (FKBP12; [11])	Average Luminescence Concentration (CPS) (FKBP12; [12])	binding affinity to chaperone FKBP12, in words (FKBP12)
NCCNC(=O)c1ccccc1Nc1cccc(C(F)(F)F)c1 [3a, N-(2-amino-ethyl)-2-(3-trifluoromethyl-phenylamino)-benzamide]	50.4 µM	323 CPS	816 CPS	1453 CPS	2072 CPS	3072 CPS	2986 CPS	–	–	–	–	–	–	–
CCC(C)(C)C(=O)C(=O)N1CCCC[C@H]1C(=O)O[C@H](CCc1ccc(OC)c(OC)c1)c1ccc(OCC(=O)O)cc1 [9-RS, (1R)-1-[4-(carboxymethoxy)phenyl]-3-(3,4-dimethoxy-phenyl)-1-propanyl (2S)-1-(3,3-dimethyl-1,2-dioxopentyl)-2-piperidinecarboxylate]	–	–	–	–	–	–	–	1399 CPS	1688 CPS	1685 CPS	2006 CPS	4244 CPS	5509 CPS	–
CCC(C)(C)C(=O)C(=O)N1CCCC[C@H]1C(=O)O[C@@H](CCc1ccc(OC)c(OC)c1)c1ccc(OCC(=O)O)cc1 [9-SR]	–	–	–	–	–	–	–	762 CPS	1050 CPS	1218 CPS	1410 CPS	1478 CPS	1392 CPS	–
NCCCNC(=O)c1ccccc1Nc1cccc(C(F)(F)F)c1 [3b]	31.9 µM	878 CPS	1325 CPS	1694 CPS	2184 CPS	4629 CPS	4788 CPS	–	–	–	–	–	–	–
CCC(C)(C)C(=O)C(=O)N1CCCC[C@H]1C(=O)O[C@@H](CCc1ccc(OC)c(OC)c1)c1ccc(OCC(=O)O)cc1 [9-RR]	–	–	–	–	–	–	–	660 CPS	1158 CPS	769 CPS	371 CPS	1297 CPS	1138 CPS	low or moderate binding affinity
CCC(C)(C)C(=O)C(=O)N1CCCC[C@H]1C(=O)O[C@@H](CCc1ccc(OC)c(OC)c1)c1ccc(OCC(=O)O)cc1 [9-SS]	–	–	–	–	–	–	–	297 CPS	876 CPS	931 CPS	579 CPS	1366 CPS	1231 CPS	low or moderate binding affinity
NCCCCCNC(=O)c1ccccc1Nc1cccc(C(F)(F)F)c1 [3d]	35.8 µM	105 CPS	220 CPS	678 CPS	1461 CPS	2662 CPS	2579 CPS	–	–	–	–	–	–	–
Cc1ccc2c(c1)sc(-c1ccc(N(C)C)cc1)[n+]2C.[Cl-] [Thioflavin-T, reference compound]	–	940 CPS	570 CPS	731 CPS	86 CPS	2311 CPS	5140 CPS	–	–	–	–	–	–	–
NCCCCNC(=O)c1ccccc1Nc1cccc(C(F)(F)F)c1 [3c]	36.2 µM	32 CPS	74 CPS	3128 CPS	161 CPS	2968 CPS	3025 CPS	–	–	–	–	–	–	–
